Results as given in PMC5764481, “Synthesis, characterization and in vitro antitrypanosomal activities of new carboxamides bearing quinoline moiety” (PLoS ONE, 2018).
Values joined by “and” are separate entries in the source; they are usually repeats but may differ in a detail not shown here. Equal entries are not always repeated.

tested on: people; test: not given; settings: cited from earlier work

Compound	people who die from adverse effects related to treatment
Nc1nc(N)nc(Nc2ccc([As]3SCC(CO)S3)cc2)n1 (stereo not shown) [melarsoprol]	1–5%

tested on: not listed separately; test: Determination of LD50 in mice; settings: mouse, in vivo, ip; male mice, intraperitoneal, observed 72 h
Experimental: Male mice were divided into various groups and test compounds were administered in various doses intraperitoneally. […] All behavioral changes and deaths during the observation periods were recorded. The percentage of death at each dose level was then calculated, converted to probits and the LD50 (μM/kg) values were calculated. To observe the health status of the mice, they were monitored 4 times a day. […] For the purpose of ameliorating the suffering of the dying mice, CO2 euthanasia was applied. All the dead mice were disposed in bio-safety containers in accordance with local standard protocols. The mortality rate in each group was calculated according to the formula: Mortalityrate(%)=(thenumberofdeadmice/thenumberofmiceinthegroup)×100.

Compound	LD50 at 72 h
Nc1nc(N)nc(Nc2ccc([As]3SCC(CO)S3)cc2)n1 (stereo not shown) [melarsoprol]	7.21 ± 0.28 µmol/kg

tested on: not given; test: not given; settings: not given

Compound	melting point
Cc1ccc(S(=O)(=O)N(C(=O)c2ccccc2)C(Cc2cc3ccccc3[nH]2)C(=O)Nc2cnc3ccccc3c2)cc1 (stereo not shown) [Compound 11c, 3-(1H-indol-2-yl)-2-[N-(4-methylbenzenesulfonyl)-1-phenylformamido]-N-(quinolin-3-yl)propanamide]	88.1 to 88.8 °C
O=C(Nc1cnc2ccccc2c1)C(Cc1cc2ccccc2[nH]1)N(C(=O)c1ccccc1)S(=O)(=O)c1ccccc1 (stereo not shown) [Compound 11k, 2-[N-(benzenesulfonyl)-1-phenylformamido]-3-(1H-indol-2-yl)-N-(quinolin-3-yl)propanamide]	73.5 to 73.8 °C

tested on: T. b. rhodesiense; test: not given; settings: cited from earlier work

Compound	effectiveness against T. b. rhodesiense
NCCCC(N)(C(=O)O)C(F)F (stereo not shown) [Eflornithine]	ineffective

tested on: T. b. gambiense strain; test: In vitro antitrypanosomal activities (LILIT, Alamar Blue); type: cell-based, Trypanosoma brucei gambiense; settings: Trypanosoma brucei, GAMBIENSE, 72 h
Experimental: In vitro antitrypanosomal activities against T. b. gambiense strain was described by Otoguro et al. In brief, T. b. gambiense strain was cultured in IMDM with various supplements and 10% heat-inactivated FBS at 37°C, under 5.0% CO2/95% air according to the method of Baltz et al. Ninety five […] of the trypanosomes suspension (2.0–2.5104 trypanosomes/mL for strain GUTat 3.1) was seeded in a 96-well microplate, and […] of a test compound solution (dissolved in 5.0% dimethylsulfoxide) was added followed by incubation for 72 h (long incubation-low inoculation test: LILIT). Ten […] of the fluorescent dye Alamar Blue was added to each well. After incubation for 3–6 h, the resulting solution was read at 528/20 nm excitation wavelength and 590/35 nm emission wavelength by a FLx800 fluorescent plate reader (Bio-Tek Instrument, Inc. Vermont, USA). Data were transferred into a spreadsheet program (Excel). The IC50 values were determined using fluorescent plate reader software (KC-4, Bio-Tek). Successive subcultures were done in 24-well tissue culture plates under the same conditions.

Compound	IC50
Nc1nc(N)nc(Nc2ccc([As]3SCC(CO)S3)cc2)n1 (stereo not shown) [melarsoprol]	5 nM

same assay, conditions: Trypanosoma brucei; T. b. gambiense strain GUTat 3.1, 72 h incubation, Alamar Blue fluorescence; read-out: IC50

Compound	IC50
Cc1ccc(S(=O)(=O)N(C(=O)c2ccccc2)C(Cc2cc3ccccc3[nH]2)C(=O)Nc2cnc3ccccc3c2)cc1 (stereo not shown) [Compound 11c, 3-(1H-indol-2-yl)-2-[N-(4-methylbenzenesulfonyl)-1-phenylformamido]-N-(quinolin-3-yl)propanamide]	106 ± 0.03 nM
O=C(Nc1cnc2ccccc2c1)C(Cc1cc2ccccc2[nH]1)N(C(=O)c1ccccc1)S(=O)(=O)c1ccccc1 (stereo not shown) [Compound 11k, 2-[N-(benzenesulfonyl)-1-phenylformamido]-3-(1H-indol-2-yl)-N-(quinolin-3-yl)propanamide]	109 ± 0.08 nM

same assay, conditions: read-out: IC50

Compound	IC50
2-[N-(benzenesulfonyl)-1-phenylformamido]-4-methyl-N-(quinolin-3-yl)pentanamide [Compound 11l]	125 ± 0.1 nM
1-(4-Methylbenzenesulfonyl)-N-(quinolin-3-yl)pyrrolidine-2-carboxamide [Compound 11h]	5 nM and 6 nM
1-(4-Nitrobenzenesulfonyl)-N-(quinolin-3-yl)pyrrolidine-2-carboxamide [Compound 11x]	3 nM
2-[N-(4-nitrobenzenesulfonyl)-1-phenylformamido]-N-(quinolin-3-yl)acetamide [Compound 11q]	128 ± 0.09 nM
2-[N-(4-methylbenzenesulfonyl)-1-phenylformamido]-N-(quinolin-3-yl)acetamide [Compound 11a]	136 ± 0.03 nM
2-[N-(benzenesulfonyl)-1-phenylformamido]-3-phenyl-N-(quinolin-3-yl)propanamide [Compound 11j]	116 ± 0.04 nM
4-Hydroxy-1-(4-methylbenzenesulfonyl)-N-(quinolin-3-yl)pyrrolidine-2-carboxamide [Compound 11g]	2 nM
4-Hydroxy-1-(4-nitrobenzenesulfonyl)-N-(quinolin-3-yl)pyrrolidine-2-carboxamide [Compound 11w]	2 nM
2-[N-(benzenesulfonyl)-1-phenylformamido]-3-methyl-N-(quinolin-3-yl)pentanamide [Compound 11m]	125 ± 0.09 nM
3-Methyl-2-[N-(4-methylbenzenesulfonyl)-1-phenylformamido]-N-(quinolin-3-yl)butanamide [Compound 11f]	3 nM
4-Methyl-2-[N-(4-nitrobenzenesulfonyl)-1-phenylformamido]-N-(quinolin-3-yl)pentanamide [Compound 11t]	114 ± 0.09 nM
2-[N-(4-nitrobenzenesulfonyl)-1-phenylformamido]-3-phenyl-N-(quinolin-3-yl)propanamide [Compound 11r]	108 ± 0.09 nM
1-(Benzenesulfonyl)-4-hydroxy-N-(quinolin-3-yl)pyrrolidine-2-carboxamide [Compound 11o]	3 nM
3-Methyl-2-[N-(4-nitrobenzenesulfonyl)-1-phenylformamido]-N-(quinolin-3-yl)butanamide [Compound 11v]	1 nM
3-Methyl-2-[N-(4-nitrobenzenesulfonyl)-1-phenylformamido]-N-(quinolin-3-yl)pentanamide [Compound 11u]	114 ± 0.03 nM
4-Methyl-2-[N-(4-methylbenzenesulfonyl)-1-phenylformamido]-N-(quinolin-3-yl)pentanamide [Compound 11d]	121 ± 0.05 nM
1-(Benzenesulfonyl)-N-(quinolin-3-yl)pyrrolidine-2-carboxamide [Compound 11p]	4 nM
2-[N-(4-methylbenzenesulfonyl)-1-phenylformamido]-3-phenyl-N-(quinolin-3-yl)propanamide [Compound 11b]	114 ± 0.05 nM
2-[N-(benzenesulfonyl)-1-phenylformamido]-N-(quinolin-3-yl)acetamide [Compound 11i]	140 ± 0.03 nM
2-[N-(benzenesulfonyl)-1-phenylformamido]-3-methyl-N-(quinolin-3-yl)butanamide [Compound 11n]	1 nM
